Measurements published in PMC9708767, “Synthesis of Polymer Precursor 12-Oxododecenoic Acid Utilizing Recombinant Papaya Hydroperoxide Lyase in an Enzyme Cascade” (Applied Biochemistry and Biotechnology, 2022).

What was measured:
[1] = biological target: N-terminally truncated hydroperoxide lyase from Carica papaya (HPL_(CP-N)) (Carica papaya); assay: SEC; Superdex 200 Increase 10/300; 50 mM potassium phosphate buffer pH 7 with 0.5 M NaCl and 0.1% Triton X-100; calibrated with gel filtration markers of 29,000 to 700,000 Da; calculated mass compared with the predicted monomer mass
[2] = biological target: HPLCP-N (Carica papaya, UniProt Z9RAA0G2V7); assay: photometric, decrease at […] nm, nonlinear regression; type: biochemical; conditions: 50 mM potassium phosphate pH 6, 1 M NaCl, 22 °C; 5-100 µM substrate; affinity-enriched enzyme
Sequence of HPLCP-N (Z9RAA0G2V7 36-496 limits assumed): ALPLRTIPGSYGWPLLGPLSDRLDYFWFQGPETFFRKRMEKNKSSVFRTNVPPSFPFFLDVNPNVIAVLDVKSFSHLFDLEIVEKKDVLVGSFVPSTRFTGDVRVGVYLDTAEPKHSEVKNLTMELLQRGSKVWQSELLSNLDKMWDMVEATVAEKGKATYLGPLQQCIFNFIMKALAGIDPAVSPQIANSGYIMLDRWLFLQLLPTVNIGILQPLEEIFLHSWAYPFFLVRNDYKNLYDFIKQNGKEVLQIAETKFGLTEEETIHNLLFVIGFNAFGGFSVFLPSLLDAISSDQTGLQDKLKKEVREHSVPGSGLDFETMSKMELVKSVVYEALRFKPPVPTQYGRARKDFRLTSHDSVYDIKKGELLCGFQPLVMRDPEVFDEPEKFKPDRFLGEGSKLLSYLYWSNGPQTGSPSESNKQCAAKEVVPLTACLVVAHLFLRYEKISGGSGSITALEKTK

N-terminally truncated hydroperoxide lyase from Carica papaya (HPL_(CP-N)) (enzyme)
stoichiometry N [1]: 4

CCCCC[C@@H](/C=C/C=C\CCCCCCCC(=O)O)OO [13S-HPODE]
Km [2]: 140 ± 30 µM

CC/C=C\C[C@@H](/C=C/C=C\CCCCCCCC(=O)O)OO [13S-HPOTE]
Km [2]: 150 ± 40 µM
